Publication PMC11002876, “KcsA-Kv1.x chimeras with complete ligand-binding sites provide improved predictivity for screening selective Kv1.x blockers” (The Journal of Biological Chemistry, 2024)
Where a SMILES comes first, the peptide text is derived from it.

molecular target: T1, KcsA-Kv1.2 T-only chimera (Streptomyces lividans, UniProt P0A334, R52A/G53D/A54E/P55R/G56E/A57S/L59F/I60P/T61S/Y62I/R64D); experiment: Phage ELISA-binding assay, KcsA-Kv1.2 T-only; set-up: species or system human Kv1.2 turret in Streptomyces lividans KcsA; details: toxin displayed on M13 phage, Fig. 7C
T1 sequence (P0A334 1-160 R52A/G53D/A54E/P55R/G56E/A57S/L59F/I60P/T61S/Y62I/R64D): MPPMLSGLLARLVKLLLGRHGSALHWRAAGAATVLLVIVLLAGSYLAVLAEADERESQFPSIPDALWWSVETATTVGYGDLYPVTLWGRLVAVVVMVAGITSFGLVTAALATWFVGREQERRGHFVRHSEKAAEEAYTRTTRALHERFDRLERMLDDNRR
Description: Phage display test solutions were prepared according to routine phage display protocols ([62]). Phosphorylated and annealed oligonucleotides encoding the peptide construct were ligated into linearized pAS62 phagemid vector (https://patents.google.com/patent/WO2022144560A1/en) at a vector/insert ratio of 1:3. The final phagemid construct harbored a signal sequence followed by the peptide of interest, a linker sequence ([…]), and the C-terminal part of the P3 coat protein (amino acids: 216-424 of NP_510891.1). Chemically competent XL1-Blue E. coli cells (2022249, Agilent) were transformed with the ligation product and then streaked onto ampicillin (100 μg/ml) containing LB/Amp plates and incubated for 16 h at 37 °C. A few clones were sequenced, and a single colony with confirmed target sequence was inoculated into 3 ml 2 YT medium supplemented with 100 μg/ml ampicillin and incubated at 37 °C until the culture reached midlog phase. The culture was infected with M13KO7 helper phage (N0315S, New England Biolabs) (phage/cell ratio 10:1) and was incubated for 30 min at 37 °C. The 3 ml culture was transferred into 200 ml 2YT medium, supplemented with 100 μg/ml ampicillin and 25 μg/ml kanamycin, and incubated overnight at 37 °C. The overnight cell culture (200 ml) was pelleted by centrifugation at 8000g for 10 min in 400 ml centrifuge tubes at 4 °C. […] The particle concentrations of phage solutions were determined using a NanoDrop One C (Thermo Fisher Scientific) spectrophotometer. The phage particle concentration was assessed according to the formula: (A268–A320) × 5 × 10^12 particles/ml ([62]). […]
Phage stock solutions were diluted to working concentration with phage resuspension buffer supplemented with 2 mM DDM. […] Following blocking, the wells were washed 4× with washing buffer (300 μl TBS-Tween, 0.1% v/v) using a Wellwash Versa microplate washer (Thermo Fisher Scientific); then 50 μl phage solution (in TBS-BSA-Tween, 0.1% v/v, 2 mM DDM) at determined phage concentration was added to the wells and incubated for 1 h at room temperature on a horizontal shaker. […]

Q: `CC[C@H](C)[C@H](NC(=O)[C@H](CCC(=O)O)NC(=O)[C@@H](NC(=O)CN)C(C)C)C(=O)N[C@@H](CC(N)=O)C(=O)N[C@H](C(=O)N[C@@H](CCCCN)C(=O)N[C@H]1CSSC[C@@H]2NC(=O)[C@H](CCCCN)NC(=O)CNC(=O)[C@H](Cc3ccccc3)NC(=O)[C@H](CCCNC(=N)N)NC(=O)[C@H](CCSC)NC(=O)CNC(=O)[C@H](C)NC(=O)[C@H](CC(=O)O)NC(=O)[C@H](CCCCN)NC(=O)[C@@H]3CSSC[C@@H](C(=O)N[C@H](C(=O)N4CCC[C@H]4C(=O)N[C@@H](CCCCN)C(=O)O)[C@@H](C)O)NC(=O)[C@H](Cc4c[nH]cn4)NC(=O)[C@H](CSSC[C@H](NC(=O)[C@H](CCC(N)=O)NC(=O)[C@@H]4CCCN4C(=O)[C@H](CO)NC(=O)CNC(=O)[C@H](CO)NC1=O)C(=O)N[C@@H](CC(C)C)C(=O)N[C@@H](CCCCN)C(=O)N1CCC[C@H]1C(=O)N3)NC(=O)[C@H](CCCCN)NC(=O)[C@H](CCCNC(=N)N)NC(=O)[C@H](CC(N)=O)NC(=O)[C@H](CCSC)NC2=O)C(C)C` [KTX1, Kaliotoxin-1] was tested. Which “phage binding to KcsA-Kv1.2 T-only, in words” value (“phage binding” below) did it give?
A: Its value is “inconsistent with their published channel blocking potencies”.

Q: For `CC[C@H](C)[C@@H]1NC(=O)[C@@H]2CSSC[C@H](NC(=O)[C@H](CO)NC(=O)[C@@H](N)C(C)C)C(=O)N[C@@H]([C@@H](C)O)C(=O)NCC(=O)N[C@@H](CO)C(=O)N[C@@H](CCCCN)C(=O)N[C@@H](CC(=O)O)C(=O)N[C@@H](CSSC[C@@H](C(=O)N[C@@H](CCCCN)C(=O)N[C@H]3CSSC[C@@H](C(N)=O)NC(=O)CNC(=O)[C@H](Cc4ccc(O)cc4)NC3=O)NC(=O)[C@H](CO)NC(=O)[C@H](CCCCN)NC(=O)[C@H](CC(N)=O)NC1=O)C(=O)N[C@@H](Cc1ccc(O)cc1)C(=O)N[C@@H](C)C(=O)N1CCC[C@H]1C(=O)N[C@H]1CSSC[C@H](NC(=O)CNC(=O)[C@H]([C@@H](C)O)NC(=O)[C@H](CCC(N)=O)NC(=O)[C@H](CCCCN)NC(=O)[C@H](CCCNC(=N)N)NC1=O)C(=O)N1CCC[C@H]1C(=O)N[C@@H](CC(N)=O)C(=O)N[C@@H](C)C(=O)N[C@@H](CCCCN)C(=O)N2` [MTX, Maurotoxin] (HELM PEPTIDE1{V.S.C.T.G.S.K.D.C.Y.A.P.C.R.K.Q.T.G.C.P.N.A.K.C.I.N.K.S.C.K.C.Y.G.C.[am]}$PEPTIDE1,PEPTIDE1,3:R3-24:R3|PEPTIDE1,PEPTIDE1,9:R3-29:R3|PEPTIDE1,PEPTIDE1,13:R3-19:R3|PEPTIDE1,PEPTIDE1,31:R3-34:R3$$$V2.0; N-terminus and C-terminus assumed), which “phage binding” value is on record?
A: Its value is “negligible binding”.

Q: For `CC[C@H](C)[C@@H]1NC(=O)[C@@H](NC(=O)[C@H](CO)NC(=O)[C@@H](N)CCCNC(=N)N)CSSC[C@@H](C(=O)O)NC(=O)[C@H]([C@@H](C)O)NC(=O)CNC(=O)[C@@H]2CSSC[C@@H]3NC(=O)[C@H](CCC(N)=O)NC(=O)[C@H](Cc4ccccc4)NC(=O)[C@H](C)NC(=O)[C@H]([C@@H](C)O)NC(=O)[C@H](CSSC[C@H](NC(=O)[C@H](Cc4ccccc4)NC(=O)[C@H](CO)NC(=O)[C@H](CC(C)C)NC(=O)[C@H](CCCNC(=N)N)NC(=O)[C@H](Cc4ccc(O)cc4)NC(=O)[C@H](CCCCN)NC(=O)[C@H](CCSC)NC(=O)[C@H](CO)NC(=O)[C@H](Cc4c[nH]cn4)NC(=O)[C@H](CCCCN)NC3=O)C(=O)N[C@@H](CCCNC(=N)N)C(=O)N[C@@H](CCCCN)C(=O)N[C@@H]([C@@H](C)O)C(=O)N2)NC(=O)[C@H](CCCNC(=N)N)NC(=O)[C@H](CO)NC(=O)[C@H](CCCCN)NC(=O)[C@@H]2CCCN2C(=O)[C@H]([C@@H](C)CC)NC(=O)[C@H]([C@@H](C)O)NC(=O)[C@H](CC(=O)O)NC1=O` [ShK, Stichodactyla toxin], which “phage binding” value is on record?
A: The value was “inconsistent with their published channel blocking potencies”.
